Experiment [1] concerns the target HcbA3C-His (HcbA3, NADH:FMN oxidoreductase). The experiment can be described thus: fluorescence quenching titration of flavin. Conditions: 50 nM FMN, 20 mM KPi pH 7.5, 20°C; oxidized FMN. In kind it is binding, Nocardioides sp. PD653.
For experiment [2], the system named is HcbA3C-His (HcbA3, NADH:FMN oxidoreductase). The experiment can be described thus: NADH oxidation at […] nm, steady-state ping-pong fit. In kind it is biochemical, Nocardioides sp. PD653. To be noted: 20 mM KPi pH 7.5, 20°C, ping-pong bi-bi.

Molecules are shown by their SMILES.

As to `Cc1cc2nc3c(=O)[nH]c(=O)nc-3n(C[C@H](O)[C@H](O)[C@H](O)COP(=O)(O)O)c2cc1C` [FMN], the equilibrium dissociation constant (Kd) (as a rule, a measure of binding affinity in units of concentration) in experiment [1] was found to be 750 ± 170 nM. In addition, in experiment [2] (NADH 10–120 µM), the Km (as a rule, the substrate concentration at which the rate is half of its maximum) turned out to be 4.43 ± 0.69 µM.

`NC(=O)C1=CN([C@@H]2O[C@H](COP(=O)(O)OP(=O)(O)OC[C@H]3O[C@@H](n4cnc5c(N)ncnc54)[C@H](O)[C@@H]3O)[C@@H](O)[C@H]2O)C=CC1` [NADH]: the Michaelis constant (Km) in experiment [2] (FMN 1–8 µM) was 51.7 ± 11.6 µM.

Source of the values: paper PMC7453296 (Journal of Pesticide Science, 2020).
